# Experimental data: a melting point compilation (Tetko et al.; mined from patent text by program, amines drawn as free bases though some values may be those of a salt)
row,Compound,melting point
1,CC(C)=CC(=O)NCC1Cc2ccc(-c3ccc(=O)[nH]n3)cc2C1 (stereo not given),204 to 205 °C
2,CS(=O)(=O)c1c(N)nc(N)nc1Cl,256 to 258 °C
3,N#CC(C#N)=C1Sc2nc3ccc([N+](=O)[O-])cc3nc2S1,220 to 222 °C
4,CCn1cc(C2CCC(=O)CC2)c2cc(C#N)ccc21,124 °C
5,CN1CCN(c2cc(Cl)cc3c2c(=O)n(Cc2cccc(N)c2)c(=O)n3Cc2ccccc2)CC1,260 to 265 °C
6,O=C1Nc2ccccc2Sc2ccccc21,258 to 259 °C
7,CS(=O)(=O)c1cccc(S(N)(=O)=O)c1,99.5 to 101 °C
8,COc1ccc(NC(=O)CBr)c(C(=O)O)c1,172 to 173 °C
9,Cc1ccc(S(=O)(=O)N2CCCC(S(=O)(=O)c3ccc(Cl)cc3)C2)cc1 (stereo not given),186 to 187 °C
10,COC(=O)C(C)c1ccc(-c2ccccc2[N+](=O)[O-])cc1 (stereo not given),83 to 86 °C
11,Nc1ccsc1C(=O)NCC1CCN(CC2COc3ccccc3O2)CC1 (stereo not given),144 to 146 °C
12,COc1cc2nc(N)nc(-c3cccc(OC(F)(F)F)c3)c2cc1OC,233 to 235 °C
13,Nc1nccnc1C(=O)NCCc1ncc[nH]1,204 to 208 °C
14,Nc1cc(Cl)c(OCC(F)(F)F)cc1F,40 to 41 °C
15,CCc1ccc([N+](=O)[O-])cc1COC,21.5 to 23.5 °C
16,CC(=O)c1cc2c(c(C)c1O)OC(C)(C)CC2C (stereo not given),96 to 97 °C
17,CC1(C)CCn2c(nc(-c3ccccn3)cc2=O)N1,345 to 347 °C
18,CCCCNC(=O)Oc1ccccc1,39 to 40 °C
19,COc1cc(N)c(Cl)cc1C(=O)NCC1CCN(CCCCCSc2ccccc2)CC1,143 to 144 °C
20,O=C(Nc1ccc2ccc(Br)nc2n1)c1ccc(F)cc1,228 °C
21,CCc1nn(Cc2ccccn2)c2c(=O)[nH]c(-c3cc(S(C)(=O)=O)ccc3OCC(C)C)nc12,223 to 225 °C
22,O=S1(=O)c2ccccc2Cc2ccc(-c3nnn[nH]3)cc21,233 °C
23,O=S1(=O)c2cccc3cccc(c23)N1CCCN1CC=C(c2c[nH]c3ccc(O)cc23)CC1,214 °C
24,CCOC(=O)C(=O)CC(=O)c1cn(Cc2ccncc2)c2ccccc2c1=O,168 to 169 °C
25,COc1cc2c(cc1OC)CN(c1nc(Cl)nc3cc(OC)c(OC)cc13)CC2,183 to 186 °C

row,Compound,melting point
1,O=C(Nc1ccc(Cl)c(C(F)(F)F)c1)c1ccccc1SSc1ccccc1C(=O)Nc1ccc(Cl)c(C(F)(F)F)c1,129 to 131 °C
2,Cc1cc(C)c(C(C#N)C=O)c(C)c1 (stereo not given),120 to 122 °C
3,O=C1c2ccccc2C(=O)N1CC#CC1=CCN=C(c2ccccc2F)c2cc(Cl)ccc21,164 to 165 °C
4,CC(C)(C)CC(NC(=O)c1ccc(Br)cc1)NC(=NS(=O)(=O)C(F)(F)F)Nc1cccnc1 (stereo not given),185 to 186 °C
5,COc1ccc(C=CC(=O)c2cccc(OCCCCBr)c2)cc1,91 to 92 °C
6,CC1(N2Cc3cc(CNC(=O)c4ccc(Cl)c(Cl)c4)ccc3C2=O)CCC(=O)NC1=O (stereo not given),220 to 222 °C
7,CC(=O)OC(OC(C)=O)c1ccc(C#N)cc1,104 to 107 °C
8,CN(c1cccc2cc(C3=NCC(CO)S3)[nH]c12)S(=O)(=O)c1cccs1 (stereo not given),207 to 208 °C
9,CC1(C)COC(=O)[C@@H]1Oc1ccc(C#N)c(C(F)(F)F)c1,89.9 to 90.7 °C
10,COC(=O)CCN(C)CCNC(=O)c1nc(Cl)c(N)nc1N,136 to 137 °C
11,Cc1cc(-n2nc(C#N)cc2-c2ccc(S(C)(=O)=O)cc2)ccc1Br,152 °C
12,CCOC(=O)C=C(C)C=CC=C(C)C=Cc1c(C)c(Cl)c(C)c(Cl)c1C,220 to 222 °C
13,CCCOc1cccc(C2(c3cccs3)N=C(N)N(C)C2=O)c1 (stereo not given),79 to 81 °C
14,COC(=O)c1cc(-c2ccc3occc3c2)n[nH]c1=O,222 to 225 °C
15,COc1cc(C)c2cc(C(=O)c3ccc(C(=O)O)cc3)ccc2c1C,240 °C
16,Brc1ccccc1C1=NOC2(N3CCCC3)CCCCC12 (stereo not given),134 °C
17,N#CCC(CC#N)c1cccc(Cl)c1Cl,76 to 78 °C
18,COc1cc(COc2ncccc2C=O)ccc1OCc1nc(-c2ccco2)oc1C,120 to 121 °C
19,CCOC(=O)c1cn2c3c(c(F)c(F)cc3c1=O)CCC2CO (stereo not given),256 to 258 °C
20,CCCN(c1ncnc2[nH]cnc12)n1cccc1,181 to 183 °C
21,O=C(CCl)c1ccc(-c2ccc(S(=O)(=O)C(F)F)cc2)cc1,157 to 159 °C
22,CCCn1c(=O)c2[nH]c(C3CCCS3)nc2n(CCC)c1=O (stereo not given),224 to 226 °C
23,O=Cc1nnc2n1-c1ccc(Cl)cc1C(c1ccccc1)=NC2,133 to 135 °C
24,O=C(CCc1cnoc1-c1ccccc1)Nc1ccc2ncccc2c1,170 to 171 °C
25,COC(=O)c1c(Cc2ccc(C(=O)CBr)cc2)c(=O)c2ccc(C)nc2n1-c1ccccc1,189 to 191 °C

row,Compound,melting point
1,CC(C)C(=O)NCc1ccc(NC(=O)/C=C/c2cnn(C)c2-c2ccc(F)cc2)cc1,258 to 259 °C
2,O=C1Nc2ccc(C(F)(F)F)cc2C1c1ncnc2c1cnn2C1CCCCC1 (stereo not given),> 300 °C
3,Cc1cc(=O)c(C(=O)Oc2ccccc2)nn1-c1ccc(Cl)cc1,140 to 146 °C
4,CCOC(=O)Oc1cccc(OC)c1Cl,75 to 76 °C
5,O=Cc1cc2cc(OCc3ccccc3)c(F)cc2nc1Cl,228 °C
6,O=C(Nc1ccccc1Cl)Nc1nc(=O)n(CC2CC2)cc1F,197 to 199 °C
7,CN(C)C1CCc2oc3ccc(NC(=O)c4ccncc4)cc3c2C1 (stereo not given),146 to 147 °C
8,Cc1ccc(C2=NCCc3c(Cl)cccc32)cc1,82.7 to 83.4 °C
9,COc1ccc2c(c1)c(-c1cc3c(-c4cccnc4)ccnc3[nH]1)cn2C,248 to 249 °C
10,CC(=O)Nc1ccc(OCCCOc2ccc(Cl)c(Cl)c2)cc1,135 to 137 °C
11,CCOC(=O)c1ccc(-c2cnc3c(c2)N(Cc2ccccc2)C(=O)CN3)cc1,178 °C
12,CC(=O)Nc1nc(-c2cc(C)cc(C)c2)c(-c2ccncc2)s1,284 to 286 °C
13,CC(C)c1c(Oc2ccccc2)n(COCc2ccccc2)c(=O)[nH]c1=O,118 °C
14,Cc1cc(C)cc(S(=O)(=O)c2ccc([N+](=O)[O-])cc2)c1,179 to 180 °C
15,CS(=O)(=O)c1ccc(-c2cnn(-c3cccc(-c4ccc(F)cc4)c3)c(=O)c2-c2ccc(F)cc2)cc1,222 to 225 °C
16,CS(=O)(=O)c1ccc(-c2cc(=O)n(CC(F)(F)F)nc2-c2ccc(F)cc2)cc1,177 to 179 °C
17,N#CC1(c2ccc(NC(=O)c3ccc4c(c3)OCCO4)cc2)CCCC1,164 to 167 °C
18,CC(C)(C)Nc1c(NCc2ccc(OC(F)(F)F)cc2)c(=O)c1=O,292 to 294 °C
19,COc1cccc(-c2cc3c(Nc4cccc(Cl)c4)ncnc3[nH]2)c1,262 to 263 °C
20,C#Cc1cccc(C2=CC(=O)NC2=O)c1,129 to 131 °C
21,COCCCn1c(C=O)c(Br)c2c3c(c(-c4ccccc4Cl)cc21)C(=O)NC3=O,206 to 207 °C
22,NP(N)(=O)NC(=O)c1cccc([N+](=O)[O-])c1,168 to 172 °C
23,Cc1cn([C@H]2CC[C@@H]3CC(=O)N[C@H]2C3)c(=O)n(COCc2ccccc2)c1=O,160 to 162 °C
24,CC(C)(C)OC(=O)N1CCN(c2cccc3cc[nH]c23)CC1,150 to 151 °C
25,Cc1nn(C)c(C(N)=O)c1[N+](=O)[O-],153 to 155 °C

row,Compound,melting point
1,CN(C)C=CC(=O)c1c(-c2ccc(F)cc2)nc2occn12,187 to 189 °C
2,O=C(Nc1cc2ncc(CN3CCCC3)cc2cc1F)c1ccc(-c2ccc(F)cc2)cc1F,200 to 202 °C
3,Cc1cc(N(C)c2ccccc2)c2nn(C)cc2n1,252 to 256 °C
4,O=C(Nc1ccc(Cl)cc1)C1=C(N2CCCC2)CS(=O)(=O)N(Cc2ccc(Cl)cc2)c2ccccc21,190 to 194 °C
5,Cc1[nH]cc2c(=O)n(-c3ccc(F)cc3)nc-2c1-c1ccccc1,303 to 317 °C
6,ClC1=NCc2ccccc2SC1,164 to 168 °C
7,O=C1OC(=O)c2ccc3c4cccc5cccc(c6ccc1c2c63)c54,> 260 °C
8,COc1ccc(N2C(=O)[C@@H](CCCc3ccccc3)[C@@H]2c2ccc(N3CCN(Cc4ccccc4)CC3)cc2)cc1 (relative stereo),139 to 140 °C
9,COc1cccc(C2c3c(C)c(NC(=O)CC(C)(C)C)c(C)c(C)c3OC2(C)C)c1 (stereo not given),166 to 167 °C
10,CCOC(=O)C=Cc1cc2c(cn1)[nH]c1ccccc12,132 to 134 °C
11,O=CC(CC(=O)O)NC(=O)C1CCCN2C(=O)CCC(NC(=O)CCc3ccccc3)C(=O)N12 (stereo not given),96 to 97 °C
12,COc1cc(C)c(C(=O)c2c(OC)cnc(Br)c2Cl)c(OC)c1OC,97 to 99 °C
13,CC(=O)C(=O)Oc1c(C)cc(Nc2ccn(-c3ccccc3)n2)cc1C,123 to 125 °C
14,CC1(C)OC(c2ccc(S(C)(=O)=O)cc2)=C(c2cccc(F)c2)C1=O,178 to 179 °C
15,Cc1ccc(-c2c3n(c(=O)c4ncccc24)CCCN(Cc2cc(C(F)(F)F)cc(C(F)(F)F)c2)C3=O)cc1,194 to 195 °C
16,CCCn1nc2c(N)nc3ccccc3c2c1CCN(C(N)=O)c1ccc(F)cc1,201 to 202 °C
17,CCCCn1c(=O)[nH]c2c(Cl)cc(OC)c(OC)c2c1=N,155 to 157 °C
18,O=C1NCCc2ccc(O)cc21,201 to 203 °C
19,CC1(C)CCc2c(N3CCOCC3)nc3sc4c(NCc5cccnc5)ncnc4c3c2C1,249 °C
20,Cc1cc(C2=NN(C(=S)Cl)[C@H](C)Cc3cc4c(cc32)OCO4)cc(C)c1[N+](=O)[O-],216 °C
21,Cc1nc(C(=O)COc2ccc(CC3SC(=O)NC3=O)cc2)c(C)o1 (stereo not given),161 to 162 °C
22,CC1(C)CON(Cc2ccc(NC(=O)Cc3ccccc3C(=O)O)cc2)C1=O,164 to 166 °C
23,CCCCC1NC(/C=C(\Cc2cccs2)C(=O)O)=CN1Cc1ccc(C(=O)O)c(-c2ccccc2)c1 (stereo not given),158 to 161 °C
24,Fc1ccc(N2CCN(Cc3cn4cc(C(F)(F)F)cc(Cl)c4n3)CC2)cc1,91 to 97 °C
25,C=C(C)c1c(OC)cc(Cc2cnc(N)nc2N)cc1OC,228 to 229 °C
